Measurements taken from patent US5646141A, “Compounds useful as antiproliferative agents and GARFT inhibitors” (Agouron Pharmaceuticals, Inc., priority 1995, dated 1997).
pIC50, pKd, pKi: −log10 of the molar value.

Assays:
[1] = system: reduced folate transport system and the mFBP; conditions: CCRF-CEM and MA104 cell lines for DDATHF (Pizzorno et al.); cited from earlier work
[2] = target: T1, human folate-binding protein (FBP) (Homo sapiens, UniProt P15328); assay: FBP competitive binding assay (3H-folic acid, KB cell membranes); conditions: for pKd: 25° C., pH 7.4, 3H-folic acid competition
T1 construct: membrane associated FBP prepared from cultured KB cells; endogenous in cells; host or cells: KB cells (membrane fraction)
T1 sequence (P15328 25-257): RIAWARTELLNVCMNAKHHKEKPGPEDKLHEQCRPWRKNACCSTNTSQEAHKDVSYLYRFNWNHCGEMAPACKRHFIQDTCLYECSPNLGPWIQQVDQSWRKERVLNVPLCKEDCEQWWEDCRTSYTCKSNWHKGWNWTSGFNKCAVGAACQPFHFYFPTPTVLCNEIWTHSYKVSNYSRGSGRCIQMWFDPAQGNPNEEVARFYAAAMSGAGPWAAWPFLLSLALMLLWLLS
Method: Determination of Dissociation Constants for Human Folate Binding Protein:
The dissociation constant (Kd) for human folate-binding protein (FBP) was determined in a competitive binding assay using membrane associated FBP prepared from cultured KB cells.
Preparation of KB cell Membrane Fraction:
Adherent KB cells were scraped from flasks, washed once in ice-cold PBS, and centrifuged at 5000×g for 5 minutes at 4° C. Pelleted cells (2×10^8 cells) were resuspended in 10 ml of suspension buffer (KH2 PO4 -KOH pH 7.4:10 mM EDTA:10 mM 2-mercaptoethanol),sonicated briefly to complete cell lysis and centrifuged at 12000×g for 10 minutes at 4° C. The pellet was stripped of endogenous bound folate by resuspension in 20 ml of acidic buffer (50 mM KH2 PO4 -KOH pH 3.5:10 mM EDTA:10 mM 2-mercaptoethanol) and centrifuged as before. The pellet was then resuspended in 20 ml of the suspension buffer at pH 7.4 and centrifuged as before. The pellet was resuspended in 5 ml of suspension buffer at pH 7.4 lacking EDTA. Protein content was quantitated using the Bradford method with BSA as standard. Typical yields for this procedure were 4-5 mg total membrane protein per 2×10^8 cells. This final suspension was used as a source of membrane-associated human FBP.
FBP Competitive Binding Assay:
Inhibitor was allowed to compete against ^3 H-folic acid for binding to FBP. Reactions mixtures contained […] of cell membrane protein containing 3-6 pmoles (3-6 nM) of FBP, 17.25 pmoles ^3 H-folic acid (17.25 nM, 0.5 μCi), various concentrations of competitor, in 1 ml of 50 mM KH2 PO4 -KOH pH 7.4:10 mM 2-mercaptoethanol. Reactions were performed at 25° C. Because of the very slow release of bound ^3 H-folic acid, the competitor was prebound for 30 minutes in the absence of ^3 H-folic acid. ^3 H-Folic acid was then added and the mixtures were allowed to equilibrate for 2.5 hours. […] The amount of bound ^3 H-folic acid was measured by scintillation counting of the nitrocellulose membrane. […]

[3] = reported in literature (Muggia); cited from earlier work
[4] = system: CCRF-CEM; assay: In vitro growth inhibition (MTT), CCRF-CEM; assay type: cell-based; conditions: Homo sapiens, title: continuous (72-hour) exposure, incubation 5 days, mean IC50, read-out: IC50 Cell Culture CCRF-CEM
Method: (§1) All cultures were maintained at 37° C., 5% air-CO2 in a humidified incubator.
In vitro growth inhibition:
(§2) Stock solutions of the inhibitors were prepared in 10 mM sodium bicarbonate in water and stored in 1 ml aliquots at -20° C. for cell culture experiments. Cell-growth inhibition was measured by a modification of the method of Mosmann, J. Immunol.
(§3) Column 1 was filled with the same volume, 135 ml, of fresh medium, without cells, for use as a blank. The plates were then placed in a 37° C., 5% air-CO2 incubator. After 1 to 4 hours, plates were removed from the incubator followed by addition of the test compound at 10×final concentration, 15 ml/well in binary dilutions, to columns 12 to 4. […] Wells containing each concentration of test compound were prepared in quadruplicate on each plate. Fifteen milliliters of media, without test compound, were added to the wells in column 1 of the plates. The cells were then returned to the incubator and remained undisturbed for the full incubation period. On day 3 for L1210 and L1210/CI920 cells or day 5 for CCRF-CEM cells, 50 ml of 0.8 mg/ml MTT (4,5-dimethylthiazol-2-yl)-2,5-diphenyl tetrazolium bromide; Sigma catalog no. […] The concentration of drug required to reduce cell growth by 50% as measured by MTT metabolism was determined by interpolation between the O.D. (minus blank) immediately above and below 50% of control O.D. (minus blank).

[5] = system: mFBP; conditions: cited from earlier work
[6] = system: L1210; assay: In vitro growth inhibition (MTT), L1210; assay type: cell-based; conditions: Mus musculus, continuous (72-hour) exposure, mean IC50, read-out: IC50 Cell Culture L1210
Method: as §1
In vitro growth inhibition:
as §2, §3

[7] = target: T2, catalytic domain of the human GARFT (Homo sapiens, UniProt P22102); assay: GAR transformylase (GARFT) inhibition constant determination; assay type: biochemical; conditions: 20° C., pH 7.5, competitive with respect to FDDF
T2 construct: catalytic domain of the human GARFT
T2 sequence (P22102 810-1010 limits assumed): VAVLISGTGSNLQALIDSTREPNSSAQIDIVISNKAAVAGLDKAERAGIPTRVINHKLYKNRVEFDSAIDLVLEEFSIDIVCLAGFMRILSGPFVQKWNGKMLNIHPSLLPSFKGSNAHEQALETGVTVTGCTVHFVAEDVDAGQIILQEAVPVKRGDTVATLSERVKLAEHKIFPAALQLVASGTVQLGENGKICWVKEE

Compound | transport into cells [1] | pKd [2] | antitumor activity [3] | pIC50 [4] | affinity for the mFBP [5] | pIC50 [6] | relative folate binding protein Kd, times less potent than 6R-DDATHF ([2]; relative to 6R-DDATHF) | pKi [7]
Nc1nc2c(c(=O)[nH]1)CC(CCc1ccc(C(=O)N[C@@H](CCC(=O)O)C(=O)O)cc1)CN2 (stereo partly drawn) [DDATHF, 5,10-dideazatetrahydrofolic acid] | transported into cells via both the reduced folate transport system and the mFBP | 10.70 | reported to show antitumor activity | 8.82 | high affinity for the mFBP | 7.76 | – | –
Cc1cc(C(=O)N[C@@H](CCC(=O)O)C(=O)O)sc1CCC1CNc2nc(N)[nH]c(=O)c2C1 (stereo partly drawn) [Compound 1, N-(5-[2-(2-amino-4(3H)-oxo-5,6,7,8-tetrahydropyrido[2,3-d]pyrimidin 6-yl)ethyl]-4-methylthieno-2-yl)-L-glutamic acid] | – | 7.55 | – | 8.21 | – | 7.87 | about 1400 times | 8.85
CN(Cc1cnc2nc(N)nc(N)c2n1)c1ccc(C(=O)N[C@@H](CCC(=O)O)C(=O)O)cc1 [Methotrexate] | transported via the reduced folate transport system | – | – | – | – | – | – | –
